Columns and labels:
[1] = tested on: RNA polymerase II binding to PRC2 target gene promoters; assay: ChIP of RNA Pol II binding to PRC2 target gene promoters; assay type: cell-based, human; details: MCF-7 cells, 5 μM, 48 hours
Procedure: (§1) ChIP assays were performed as described previously. […] MCF-7 cell were seeded into 6-well plates at 30% confluence and treated with or without 3-deazaneplanocin (5 μM) for 48 hours. Cells were washed once in 1× phosphate-buffered saline (PBS) and then treated with 1% formaldehyde in PBS at 37° C. for […] followed by the addition of glycine to a final concentration of 0.125 M for 5 mM. Cells were then scraped on ice and centrifuged at 1500 rpm for 5 mM at 4° C. After washing with PBS cell pellets were resuspended in 1 mL of cold lysis buffer (10 mM HEPES at pH 7.5, 1 mM EDTA at pH 8.0, 400 mM NaCl, 10% glycerol, 0.5% NP-40, 0.5 mM phenylmethylsulfonyl fluoride, and protease inhibitors [1 mM benzamidine, 3 mg/mL leupeptin, 0.1 mg/mL bacitracin, 1 mg/mL macroglobulin]) followed by centrifugation at 11,500 rpm in a microfuge for 5 min at 4° C. to remove protein not cross-linked to chromatin. The resulting pellets were then resuspended again in 1 mL of cold lysis buffer and sonicated with a Heat Systems-Ultrasonics, Inc. W-220 sonicator at 20% output for a total of 2 mM (pulsed: 30 sec on/30 sec off). The resulting solution was cleared by centrifugation at maximum speed in a microfuge for 10 mM at 4° C. At this point 5% of the solution was taken and stored at −20° C. for the input chromatin sample. […]

[2] = tested on: mRNA of EZH2, SUZ12 and EED; assay: RT-PCR of mRNA levels of PRC2 proteins; assay type: cell-based; details: HCT116 cells, after 3-deazaneplanocin treatment
Procedure: FIG. 1B depicts the analysis of the mRNA levels of the PRC2 proteins EZH2, SUZ12, and EED by reverse transcription (RT-PCR) before (-) and after (+)3-deazaneplanocin treatment. HCT116 cells were treated as in (a) and total RNA was isolated for RT-PCR analysis GAPDH served as a control. […] Accordingly, trimethylation of histone 3 at […] In contrast, histone H3 methylation at […] (H3-K9) was not affected by 3-deazaneplanocin treatment.

CC33D cells = assay: Microscopy examination of cell death in primary colon epithelial cells; assay type: cell-based; details: normal primary colon epithelial CC33D cells compared to HCT116
Text: To determine whether 3-deazaneplanocin preferentially induces apoptosis in cancer cells, the apoptosis induction between MCF-7 cells and the non-cancerous breast epithelial MCF10A cells was compared for various periods of time. […] In addition, normal primary colon epithelial CC33D cells, like MCF10A cells, were also resistant to 3-deazaneplanocin treatment compared to colorectal cancer HCT116 cell, as evaluated by microscopy examination (FIGS. 3G & 3H).

[3] = tested on: SUZ12 binding to PRC2 target gene promoters; assay: ChIP of SUZ12 binding to PRC2 target gene promoters; assay type: cell-based, human; details: MCF-7 cells, 5 μM, 48 hours
Procedure: as §1

## Nc1nccc2c1ncn2C1C=C(CO)C(O)C1O (stereo not shown) [3-deazaneplanocin, 5-(4-amino-1H-imidazo[4,5-c]pyridin-1-yl)-3-(hydroxymethyl)-3-cyclopentene-1,2-diol]
[1]
  binding of RNA Pol II to PRC2 target gene promoters (ChIP): increased
[2]
  mRNA levels of each of the PRC2 proteins (RT-PCR): remained unchanged
CC33D cells
  sensitivity to treatment, microscopy examination: resistant
[3]
  SUZ12 binding to PRC2 target gene promoters (ChIP): markedly reduced

From patent US8058258B2, “Methods for cancer therapy and stem cell modulation” (Agency for Science, Technology and Research, priority 2006, dated 2011)
